Activity calls are given as the source filed them. No cut-off for these calls is given here.
What was measured:
4T1 [1] = assay: Antiinvasive activity against mouse 4T1 cells assessed as inhibition of cell invasion at 0.5 uM measured after 24 hrs by crystal violet staining based transwell invasion assay relative to control; type: functional
MDA-MB-231 [2] = assay: Induction of apoptosis in human MDA-MB-231 cells assessed as upregulation of caspase-9 expression at 0.25 to 1 uM by Western blot analysis; type: functional, cell-based; conditions: dose 0.25-1 µM
4T1 [3] = assay: Antiinvasive activity against mouse 4T1 cells assessed as reduction in cell invasion measured after 24 hrs by crystal violet staining based transwell invasion assay; type: functional; conditions: dose 0.02-0.5 µM
MDA-MB-231 [4] = assay: Induction of apoptosis in human MDA-MB-231 cells assessed as upregulation of PARP-1 expression at 0.25 to 1 uM by Western blot analysis; type: functional, cell-based; conditions: dose 0.25-1 µM
4T1 [5] = assay: Downregulation of phosphorylated AKT protein level at Thr308 residue in mouse 4T1 cells at 0.02 to 2.5 uM incubated for 24 hrs by Western blot analysis; type: functional, cell-based; conditions: dose 0.02-2.5 µM
MDA-MB-231 [6] = assay: Induction of apoptosis in human MDA-MB-231 cells assessed as late apoptotic cells at 1 uM by Annexin V-FITC staining based flow cytometric analysis (reference value: 0.02 %); type: functional
[7] = Acute toxicity in female ICR mouse assessed as liver pathological abnormalities at 50 mg/kg, ip measured after 2 days; type: organism-based; conditions: in vivo, 48 h, time 2 day
MDA-MB-231 [8] = assay: Antimigratory activity in human MDA-MB-231 cells assessed as inhibition of cell migration at 0.02 to 0.5 uM incubated for 24 hrs by scratch assay; type: functional, cell-based; conditions: dose 0.02-0.5 µM
MDA-MB-231 [9] = assay: Induction of apoptosis in human MDA-MB-231 cells assessed as necrotic cells at 0.25 uM by Annexin V-FITC staining based flow cytometric analysis (reference value: 7.98 %); type: functional
MDA-MB-231 [10] = assay: Induction of ferroptosis in human MDA-MB-231 cells assessed as decrease in GPX4 expression by Western blot analysis; type: functional, cell-based; conditions: dose 0.25-1 µM
MDA-MB-231 [11] = assay: Inhibition of Bcl-xl expression in human MDA-MB-231 cells at 0.25 to 1 uM by Western blot analysis; type: functional, cell-based; conditions: dose 0.25-1 µM
MDA-MB-231 [12] = assay: Antitumor activity against human MDA-MB-231 cells xenografted in nude mouse assessed as reduction in tumor size at 10 to 20 mg/kg, ip administered for 30 days; type: functional, organism-based; conditions: dose 10-20 mg/kg, time 30.0 day
MDA-MB-231 [13] = assay: Induction of ferroptosis in human MDA-MB-231 cells xenografted in nude mouse assessed as reduction in GPX4 level at 10 to 20 mg/kg, ip administered for 30 days by immunohistochemistry analysis; type: functional, organism-based; conditions: dose 10-20 mg/kg, time 30.0 day
MDA-MB-231 [14] = assay: Induction of apoptosis in human MDA-MB-231 cells assessed as early apoptotic cells at 0.25 uM by Annexin V-FITC staining based flow cytometric analysis (reference value: 0.17 %); type: functional
[15] = Drug metabolism in nude mouse xenografted with human MDA-MB-231 cells assessed as aurovertin-B release at 10 to 20 mg/kg, ip administered for 30 days by LC-MS/MS analysis; type: ADME, organism-based; conditions: in vivo, 720 h, dose 10-20 mg/kg, time 30 day
4T1 [16] = assay: Inhibition of cell adhesion in mouse 4T1 cells assessed as rounded form appearance of cells at 0.02 to 0.5 uM incubated for 24 hrs by microscopic analysis; type: functional, cell-based; conditions: dose 0.02-0.5 µM
[17] = Acute toxicity in female ICR mouse assessed as effect on behavior at <40 mg/kg, ip measured within 24 hrs; type: organism-based; conditions: in vivo
4T1 [18] = assay: Antimigratory activity in mouse 4T1 cells assessed as inhibition of cell migration at 0.02 to 0.5 uM incubated for 24 hrs by scratch assay; type: functional, cell-based; conditions: dose 0.02-0.5 µM
MDA-MB-231 [19] = assay: Induction of apoptosis in human MDA-MB-231 cells assessed as early apoptotic cells at 1 uM by Annexin V-FITC staining based flow cytometric analysis (reference value: 0.17 %); type: functional
[20] = Acute toxicity in female ICR mouse assessed as effect on body weight at <40 mg/kg, ip measured within 24 hrs; type: organism-based; conditions: in vivo
4T1 [21] = assay: Downregulation of phosphorylated JNK protein level at Thr183/185 residues in mouse 4T1 cells at 0.02 to 2.5 uM incubated for 24 hrs by Western blot analysis; type: functional, cell-based; conditions: dose 0.02-2.5 µM
Cell membrane = assay: Induction of mitochondrial membrane loss in human MDA-MB-231 cells assessed as increase in ratio of green fluorescence at 0.25 to 1 uM incubated for 24 hrs by JC-1 staining based; type: cell membranes; conditions: dose 0.25-1 µM
MDA-MB-231 [22] = assay: Induction of NO release in human MDA-MB-231 cells assessed NO concentration by Griess reagent based assay; type: functional
MDA-MB-231 [23] = assay: Induction of apoptosis in human MDA-MB-231 cells assessed as early apoptotic cells at 0.5 uM by Annexin V-FITC staining based flow cytometric analysis (reference value: 0.17 %); type: functional
[24] = Acute toxicity in ip female ICR mouse assessed as lethal dose measured after 2 days; type: organism-based; conditions: in vivo, time 2 day
MDA-MB-231 [25] = assay: Induction of apoptosis in human MDA-MB-231 cells assessed as viable cells at 0.25 uM by Annexin V-FITC staining based flow cytometric analysis (reference value: 91.03%); type: functional; conditions: read-out: Activity
MDA-MB-231 [26] = assay: Induction of ferroptosis in human MDA-MB-231 cells assessed as decrease in GSH/GSSG ratio incubated for 24 hrs by GSH colorimetric assay; type: functional, cell-based; conditions: dose 0.25-1 µM
HCC1937 = assay: Antiproliferative activity against human HCC1937 cells assessed as reduction in cell viability incubated for 72 hrs by MTT assay; type: functional, cell-based; conditions: HCC1937, 72 h
MDA-MB-231 [27] = assay: Upregulation of Bax expression in human MDA-MB-231 cells at 0.25 to 1 uM by Western blot analysis; type: functional, cell-based; conditions: dose 0.25-1 µM
MDA-MB-231 [28] = assay: Induction of apoptosis in human MDA-MB-231 cells assessed as late apoptotic cells at 0.25 uM by Annexin V-FITC staining based flow cytometric analysis (reference value: 0.02 %); type: functional
[29] = Cytotoxicity against human MCF-10A cells assessed as reduction in cell viability incubated for 72 hrs by MTT assay; type: toxicity, cell-based
MDA-MB-231 [30] = assay: Induction of apoptosis in human MDA-MB-231 cells assessed as necrotic cells at 1 uM by Annexin V-FITC staining based flow cytometric analysis (reference value: 7.98 %); type: functional
T47D = assay: Antiproliferative activity against human T47D cells assessed as reduction in cell viability incubated for 72 hrs by MTT assay; type: functional, cell-based
4T1 [31] = assay: Antimetastatic activity in mouse 4T1 cells implanted in female BALB/c mouse assessed as reduction in number of metastatic nodules in lungs at 10 mg/kg, ip administered once daily for 2 weeks and measured 2 weeks after tumor removal with compound treatment (reference value: 193.7 +/- 6.50); type: functional; conditions: time 4 weeks
MDA-MB-231 [32] = assay: Antiinvasive activity against human MDA-MB-231 cells assessed as reduction in cell invasion measured after 24 hrs by crystal violet staining based transwell invasion assay; type: functional; conditions: dose 0.02-0.5 µM
[33] = Drug metabolism in nude mouse xenografted with human MDA-MB-231 cells assessed as metabolite formation at 10 to 20 mg/kg, ip administered for 30 days by LC-MS/MS analysis; type: ADME, organism-based; conditions: in vivo, 720 h, dose 10-20 mg/kg, time 30 day
4T1 [34] = assay: Upregulation of DUSP1 protein expression in mouse 4T1 cells incubated for 24 hrs by Western blot analysis; type: functional, cell-based; conditions: dose 0.02-2.5 µM

CC[C@H]1O[C@@]2(C)[C@H](OC(C)=O)[C@@]1(C)O[C@@H](/C=C/C=C/C=C/c1oc(=O)cc(OC)c1C)[C@@H]2OC(=O)CCC(=O)OC/C=C/COc1no[n+]([O-])c1S(=O)(=O)c1ccccc1
inhibition at 0.5 µM (4T1 [1]): 62.8%
Activity (MDA-MB-231 [2]): Active
Activity (4T1 [3]): Dose-Dependent Effect
Activity (MDA-MB-231 [4]): Active
Activity (4T1 [5]): Active
Activity (MDA-MB-231 [6]): 8.89%
Activity [7]: Non-Toxic
Activity (MDA-MB-231 [8]): Active
Activity (MDA-MB-231 [9]): 0.37%
Activity (MDA-MB-231 [10]): Dose-Dependent Effect
inhibition (MDA-MB-231 [11]): Active
Activity (MDA-MB-231 [12]): Active
Activity (MDA-MB-231 [13]): Active
Activity (MDA-MB-231 [14]): 12.97%
Drug metabolism [15]: Metabolite_Detected
inhibition (4T1 [16]): Active
Activity [17]: Non-Toxic
Activity (4T1 [18]): Active
Activity (MDA-MB-231 [19]): 42.67%
Activity [20]: Non-Toxic
Activity (4T1 [21]): Active
Activity (Cell membrane): Active
Activity (MDA-MB-231 [22]): 4.87 µM
Activity (MDA-MB-231 [23]): 16.23%
LD50 at 48 h [24]: 103 mg/kg
viability at 0.25 µM (MDA-MB-231 [25]): 80.8%
Activity (MDA-MB-231 [26]): Dose-Dependent Effect
IC50 (HCC1937): 0.87 µM
Activity (MDA-MB-231 [27]): Active
Activity (MDA-MB-231 [28]): 5.82%
IC50 at 72 h [29]: > 50 µM
Activity (MDA-MB-231 [30]): 1.42%
IC50 (T47D): > 50 µM
Activity (4T1 [31]): 64.5
Activity (MDA-MB-231 [32]): Dose-Dependent Effect
Drug metabolism [33]: Metabolite_Detected
Activity (4T1 [34]): Dose-Dependent Effect

Source: ChEMBL document CHEMBL5523764, “Discovery of NO Donor-Aurovertin Hybrids as Dual Ferroptosis and Apoptosis Inducers for Treating Triple Negative Breast Cancer” (J Med Chem, 2024)
